Consider 12 molecules from ChEMBL document CHEMBL1201862, “PubChem BioAssay data set” (2004).

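Values below derive from 48-hour exposures of cells grown in 96-well plates, with endpoints linearly interpolated between the two concentrations bracketing the appropriate inhibition level. Here, GI50 denotes the concentration required for 50% inhibition of growth.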 Active and inactive are the calls of the source. Cut-off read from the data, not from the text of the source: active = GI50 up to about 1.1 µM and inactive = higher.

Experiment in all cases: growth of human tumour cells (NCI), 48 h
In test [1] the test system is OVCAR-3.
The subject of test [2] is HOP-62.
The subject of test [3] is RPMI-8226.
The test system of test [4] is SF-539.
Test [5] has as its system EKVX.
Test [6] concerns HCT-15.
In test [7] the test system is Malme-3M.
Test [8] deals with NCI-H522.
Test [9] has as its system SW-620.
Test [10] has as its system IGROV-1.
Test [11] relates to HOP-92.
The test system of test [12] is RXF 393.
Test [13] concerns SNB-75.
The subject of test [14] is SK-MEL-28.
The test system of test [15] is UO-31.
Test [16] deals with SF-295.
In test [17] the test system is SK-MEL-5.
In test [18] the test system is Hs-578T.
Test [19] deals with NCI-H23.

With `Oc1nnc(CNc2ccc(Cl)cc2Cl)c2ccccc12`, the GI50 was 18.9 µM (inactive) in test [1]; 20.5 µM (inactive) in test [2]; 58.2 µM (inactive) in [3]; 17.1 µM (inactive) in [4]; 36.2 µM (inactive) in [5]; 20.1 µM in test [6]. The GI50 was 23.6 µM (inactive) in test [7]; 18.2 µM (inactive) in test [8]; 37.1 µM (inactive) in test [9]; 25.5 µM (inactive) in test [10]; 32.7 µM (inactive) in test [11]; 13.9 µM (inactive) in test [12]. Further, the GI50 in [13] is 23.6 µM (inactive); in test [14], 22.3 µM (inactive); in [15] it was 17.3 µM (inactive); in [16], 20.9 µM (inactive); in test [17], 19.7 µM (inactive).
Regarding `CCOC(=O)CCC(NC(=O)c1ccc(CNc2nc3ccccc3nc2C(=O)OCC)cc1)C(=O)OCC` (stereo unspecified), the GI50 was 78.7 µM (inactive) in [1]; > 100 µM (inactive) in [2]; > 100 µM (inactive) in test [18]; > 100 µM (inactive) in [3]; > 100 µM (inactive) in test [5]; > 100 µM (inactive) in [19]. For the same molecule, the GI50 in test [6] is above 100 µM; in test [7] it was 77.3 µM (inactive); in test [8], > 100 µM (inactive); in test [9], > 100 µM (inactive); in [10] it was 43.7 µM (inactive); in test [11], > 100 µM (inactive). Further, the GI50 in test [13] was > 100 µM (inactive); in test [14], > 100 µM (inactive); in [15], 44.1 µM (inactive); in test [16], > 100 µM (inactive); in test [17], > 100 µM (inactive).
For the molecule `CC(Cn1c2c(c3cc(O)ccc31)CCc1ccc(O)cc1-2)N(C)C` (stereo unspecified), the GI50 is 15.6 µM (inactive) in test [1]; 15.6 µM (inactive) in test [2]; 17.1 µM (inactive) in [18]; 38.3 µM (inactive) in test [3]; 16.1 µM (inactive) in test [4]; 19.8 µM (inactive) in test [5]. The GI50 was 19.6 µM (inactive) in test [19]; 13.9 µM in [6]; 14.5 µM (inactive) in test [7]; 20.3 µM (inactive) in test [9]; 12.8 µM (inactive) in test [10]; 22.1 µM (inactive) in [12]. The GI50 was 15.8 µM (inactive) in [13], 13.2 µM (inactive) in [15] and 18.2 µM (inactive) in test [16].
Turning to `C/C(=C1/CCC/C(=C(/C)c2ccccc2)C1=O)c1ccccc1`, the GI50 was 64.4 µM (inactive) in [1]; 23.9 µM (inactive) in test [3]; 62.4 µM (inactive) in test [4]; 45.8 µM (inactive) in test [5]; 27.5 µM (inactive) in test [19]; 31.6 µM in test [6]. For the same molecule, the GI50 in test [7] was 14.9 µM (inactive); in [8] it was 33.6 µM (inactive); in test [9], 80 µM (inactive); in test [10], 79.4 µM (inactive); in test [11], 38.8 µM (inactive); in [12] it was 17.6 µM (inactive). Further, the GI50 in test [13] was 63.1 µM (inactive); in test [14] it was 36.3 µM (inactive); in [15], 44.6 µM (inactive); in test [16], 38.1 µM (inactive); in test [17], 22.8 µM (inactive).
Regarding `O=C(c1ccccc1)c1cc(-c2ccccc2)c(-c2ccccc2)[nH]c(=O)c1=O`, the GI50 was 35.6 µM (inactive) in [1]; 59.6 µM (inactive) in test [2]; 40.9 µM (inactive) in test [18]; 23.9 µM (inactive) in test [3]; 31.3 µM (inactive) in test [4]; 33.7 µM (inactive) in test [5]. For the same molecule, the GI50 is 19 µM (inactive) in [19]; 28.3 µM in [6]; 49.3 µM (inactive) in test [7]; 22.1 µM (inactive) in test [8]; 37.2 µM (inactive) in test [9]; 60 µM (inactive) in test [10]. The GI50 in [11] was 41.1 µM (inactive); in [14], 42.2 µM (inactive); in [15], 35.8 µM (inactive); in test [16] it was 40.7 µM (inactive); in test [17], 31.6 µM (inactive).
Turning to `O=S1(=O)COc2ccccc2-c2ncncc21`, the GI50 in [1], in [2], in [3], in test [4], in [5] and in test [19] was > 100 µM (inactive) throughout. Also, the GI50 in [6] was above 100 µM; in test [7], > 100 µM (inactive); in test [8] it was > 100 µM (inactive); in test [9], > 100 µM (inactive); in test [10], > 100 µM (inactive); in [11], > 100 µM (inactive). The GI50 in test [12] was 1.02 µM (active); in [13] it was > 100 µM (inactive); in test [14], > 100 µM (inactive); in [15], > 100 µM (inactive); in [16], > 100 µM (inactive); in [17] it was > 100 µM (inactive).
Consider `CC(C)[C@@H](C)[C@@]1(C)C[C@@H]1[C@@H](C)[C@H]1CC[C@@H]([C@@H]2CC=C3C[C@@H](O)CC[C@]3(C)C2=O)[C@]1(C)CCO`, for which the GI50 was 12.8 µM (inactive) in test [1]; 17.3 µM (inactive) in test [2]; 10.3 µM (inactive) in [18]; 12.2 µM (inactive) in test [3]; 12.6 µM (inactive) in test [4]; 12.9 µM (inactive) in [5]. Also, the GI50 was 14.1 µM (inactive) in [19]; 5.27 µM in [6]; 14 µM (inactive) in [7]; 6.9 µM (inactive) in test [8]; 7.55 µM (inactive) in [9]; 15.6 µM (inactive) in test [10]. Further, the GI50 in [12] is 3.3 µM (inactive); in test [13], 5.66 µM (inactive); in test [14] it was 7.53 µM (inactive); in [15], 15.2 µM (inactive); in test [16], 9.2 µM (inactive); in [17], 13.1 µM (inactive).
Take `Cc1ccc(S(=O)(=O)N2CCCCC2CCO)cc1` (stereo unspecified): the GI50 in test [1], in test [2], in [3], in [4], in [5] and in test [19] was > 100 µM (inactive) each time. The GI50 is above 100 µM in test [6]; > 100 µM (inactive) in test [7]; 0.0342 µM (active) in test [8]; > 100 µM (inactive) in test [9]; > 100 µM (inactive) in test [10]; > 100 µM (inactive) in [11]. In addition, the GI50 in [12], in [13], in test [15], in test [16] and in test [17] was > 100 µM (inactive) in each case.
With `CCC(Oc1ccc(OC)c2c1C(=O)CCC2)C(=O)O` (stereo unspecified), the GI50 in test [1], in test [2], in [3], in test [4], in [5] and in [19] was > 100 µM (inactive) throughout. The GI50 in test [6] was above 100 µM; in [7], > 100 µM (inactive); in test [8], > 100 µM (inactive); in test [9], > 100 µM (inactive); in [10], > 100 µM (inactive); in [12], > 100 µM (inactive). The GI50 in [13], in test [14], in test [15], in test [16] and in test [17] was > 100 µM (inactive) each time.
As to `NCCCSCC(=O)O`, the GI50 is > 100 µM (inactive) in test [1]; > 100 µM (inactive) in test [3]; > 100 µM (inactive) in test [4]; > 100 µM (inactive) in test [5]; > 100 µM (inactive) in test [19]; above 100 µM in [6]. The GI50 in test [7], in [8], in test [9], in test [10], in test [11] and in test [12] was > 100 µM (inactive) each time. The GI50 in [13], in test [14], in [15], in test [16] and in test [17] was > 100 µM (inactive) throughout.
Consider `COc1ccc(/C(Cl)=C(\c2ccc(OCCN(C)C)cc2)c2ccc(OC(=O)C(C)(C)C)cc2)cc1`, for which the GI50 in test [1] is 15.2 µM (inactive); in test [2], 16.1 µM (inactive); in [3] it was 14.3 µM (inactive); in test [4] it was 13.8 µM (inactive); in [5], 13.7 µM (inactive); in test [19], 15.7 µM (inactive). Also, the GI50 in test [6] is 10.6 µM; in test [7], 13.6 µM (inactive); in [8], 14.8 µM (inactive); in [9], 13.2 µM (inactive); in test [10] it was 17.7 µM (inactive); in test [11] it was 18.1 µM (inactive). The GI50 in [12] is 8.28 µM (inactive); in test [13], 10.2 µM (inactive); in [14], 11.1 µM (inactive); in test [15] it was 6.95 µM (inactive); in test [16] it was 14.8 µM (inactive); in test [17], 14 µM (inactive).
On to `CC[C@]12C=CCN3CCC4(c5cc([C@@]6(C(=O)OC)CC7CN(CCc8c6[nH]c6ccccc86)C[C@@H]6CCC[C@H]76)c(OC)cc5N(C)C4[C@](O)(C(=O)OC)C1OC(C)=O)C32` (stereo partly specified), for which the GI50 was 0.061 µM (active) in test [1]; 0.106 µM (active) in test [2]; 0.141 µM (active) in test [3]; 0.11 µM (active) in test [4]; 0.968 µM (active) in test [5]; 0.116 µM (active) in [19]. Moreover, the GI50 in [6] was 0.443 µM; in [7], 0.104 µM (active); in test [8], 0.0188 µM (active); in test [9], 0.122 µM (active); in [10], 0.218 µM (active); in [11], 0.526 µM (active). Also, the GI50 was 0.21 µM (active) in [12]; 0.0621 µM (active) in [13]; 0.168 µM (active) in [14]; 3.55 µM (inactive) in test [15]; 0.0986 µM (active) in test [16]; 0.0324 µM (active) in test [17].
